The target in experiment [1] is T1, LIN28A(16–187)–let-7 interaction (Homo sapiens, UniProt Q9H9Z2).
T1 construct: LIN28A(16–187) or LIN28B(24–111); pET19a or pMAL vector) (cleaved yes); made in house; host or cells: Escherichia coli BL21(DE3)
T1 sequence (Q9H9Z2 16-187): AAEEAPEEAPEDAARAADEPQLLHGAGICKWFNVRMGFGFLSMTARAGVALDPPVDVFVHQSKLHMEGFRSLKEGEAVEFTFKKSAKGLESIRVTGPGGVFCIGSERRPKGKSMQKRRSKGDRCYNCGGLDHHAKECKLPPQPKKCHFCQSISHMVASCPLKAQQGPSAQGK
In words: Electrophoretic mobility shift assay (EMSA), disruption of LIN28–let-7 complex. The format is binding. As to conditions: for IC50: concentration-dependent EMSA, some values estimated, read-out: IC50 in dose–response EMSA; for inhibition at 75 µM: single concentration of 75 μM, read-out: inhibition of the LIN28–let-7 interaction measured in EMSA. Here is the method:
(§1) Inhibition of the LIN28–let-7 complex was evaluated by electrophoretic mobility shift assays. Mixtures containing compound at indicated concentrations, LIN28A(16–187) or LIN28B(24–111), and recombinant ribonuclease inhibitor (TaKaRa Bio) were incubated at room temperature for 2 h. The reaction buffer contained 50 mM TRIS, pH 7.5, 100 mM NaCl, 10 mM β-mercaptoethanol, 50 μM ZnCl2, 2% DMSO, 0.01% Tween-20 and 12% glycerol. Cy-3-fluorophore labeled RNA, (pre-E let-7f-1-Cy3, Mus musculus, […]-Cy3, purchased from IDT) was added to the reaction and incubated for further 15 min. The final concentrations were as follows: 10 nM LIN28A or 200 nM LIN28B, 5 nM RNA. Of each mixture, 10 μL was analyzed on a nondenaturing PAGE (5.3% acrylamide TAE PAGE for full-length LIN28 and 10% acrylamide TAE PAGE for analysis of the CSD) prerun for 1 h without sample and run for 1 h at 220 V at 4 °C in 0.25× TAE buffer. Gels were imaged using a ChemiDoc MP instrument (Bio-Rad Laboratories). Band intensities were analyzed using ImageJ and inhibition was quantified by calculation of the ratio of free RNA fluorescence to the fluorescence of the protein–RNA complex, and normalization to free RNA and LIN28–let-7 complex controls. The intensity ratio was analyzed by nonlinear regression fit in GraphPad Prism to determine the IC50 values.

In experiment [2] the target is T2, LIN28A (16-126) CSD protein (Homo sapiens, UniProt Q9H9Z2).
T2 construct: incubated with LIN28A (16-126) CSD protein; pET19a or pMAL vector) (cleaved yes); made in house; host or cells: Escherichia coli BL21(DE3)
T2 sequence (Q9H9Z2 16-126): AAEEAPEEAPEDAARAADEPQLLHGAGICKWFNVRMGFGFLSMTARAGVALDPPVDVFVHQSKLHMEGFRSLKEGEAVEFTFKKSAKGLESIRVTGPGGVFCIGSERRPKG
In words: Nano differential scanning fluorimetry (nanoDSF) thermal shift. As to conditions: compound at 75 μM. The format is binding. How it is done: (§2) Nano differential scanning fluorimetry (nanoDSF)
Compounds (final concentration 75 µM) were incubated with LIN28A (16-126) CSD protein
for 45 minutes at room temperature in a buffer containing 30 mM NaH2PO4, 50 mM NaCl and
1 mM MgCl2 at pH 8.0. Thermal protein stability was determined using NanoTemper
Prometheus NT.48 with a temperature ramp from 20 °C to 90 °C increasing the temperature by
1 °C per minute. Melting temperatures were determined using the software of the device. […]
(§3) Master Mix II, with UNG (A pplied Biosystems) and a CFX Connect Real -Time PCR System

A further experiment has as its target T3, LIN28B–let-7 interaction (Homo sapiens, UniProt Q6ZN17).
T3 construct: residues 24–111 of the LIN28B cold shock domain; pET19a or pMAL vector) (cleaved yes); made in house; host or cells: Escherichia coli BL21(DE3)
T3 sequence (Q6ZN17 24-111): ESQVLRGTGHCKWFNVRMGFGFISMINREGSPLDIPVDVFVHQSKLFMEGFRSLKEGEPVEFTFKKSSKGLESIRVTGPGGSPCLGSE
In words: EMSA with LIN28B. The format is binding. As to conditions: Figure S3. How it is done:
as §1

A further experiment concerns the target T4, LIN28A CSD (Homo sapiens, UniProt Q9H9Z2).
T4 construct: residues 16–126 of the LIN28A cold shock domain; pET19a or pMAL vector) (cleaved yes); made in house; host or cells: Escherichia coli BL21(DE3)
T4 sequence (Q9H9Z2 16-126): T2 sequence (Q9H9Z2 16-126)
In words: Biolayer interferometry (BLI). The format is binding. Here is the method:
(§4) Biolayer Interferometry (BLI)
Recombinant LIN28A CSD was biotinylated with EZ-Link Sulfo NHS-LC-LC-Biotin (Thermo Fisher Scientific) following the manufacturer's guidelines with a labeling ratio of one biotin per protein. Free biotin reagent was removed during dialysis against buffer (20 mM HEPES pH 7.5, 150 mM NaCl, 1 mM MgCl2). After loading optimization, the protein was immobilized on SA biosensors (Sartorius). The association and dissociation of compounds were recorded in a buffer containing 20 mM HEPES pH 7.5, 150 mM NaCl, 1 mM MgCl2, 0.05 % Tween 20, 1 % DMSO and 0.3 mg/mL BSA. Data was measured and analyzed using an Octet Red384 instrument (Sartorius). Double referencing against samples without compound and sensors loaded with 10 µg/mL biocytin instead of protein was performed. […]
as §3

The test system of experiment [3] is mature let-7d and let-7i levels in JAR cells. In words: qPCR of mature let-7 miRNA levels in JAR cells. It counts as cell-based. As to conditions: 24 h. Here is the method: as §2
Compounds (final concentration 75 µM) were incubated with LIN28A (16-126) CSD protein for 45 minutes at room temperature in a buffer containing 30 mM NaH2PO4, 50 mM NaCl and 1 mM MgCl2 at pH 8.0. Thermal protein stability was determined using NanoTemper Prometheus NT.48 with a temperature ramp from 20 °C to 90 °C increasing the temperature by 1 °C per minute. Melting temperatures were determined using the software of the device.
as §4
Recombinant LIN28A CSD was biotinylated with EZ-Link Sulfo NHS-LC-LC-Biotin (Thermo Fisher Scientific) following the manufacturer's guidelines with a labeling ratio of one biotin per protein. Free biotin reagent was removed during dialysis against buffer (20 mM HEPES pH 7.5, 150 mM NaCl, 1 mM MgCl2). […] The association and dissociation of compounds were recorded in a buffer containing 20 mM HEPES pH 7.5, 150 mM NaCl, 1 mM MgCl2, 0.05 % Tween 20, 1 % DMSO and 0.3 mg/mL BSA. Data was measured and analyzed using an Octet Red384 instrument (Sartorius). […]
For computational docking analysis of pyrrolinones 11S/R to the RNA binding site of LIN28A (PDB code: 5UDZ)1 Schrödinger® Maestro 12.3 was used. […] The glide dock module was used and the results were evaluated according to interactions between small molecules and LIN28A, small molecule orientations, docking scores and solvent exposure patterns. […]

Several values for one entry are separate records, joined by “and”; a condition that tells them apart may be missing. Equal values may be shown once. Some results are limits rather than exact numbers.

Consider `Cn1nnc2cc(C3C(C(=O)c4ccccc4)=C(O)C(=O)N3c3ccc(O)c(C(=O)O)c3)ccc21` (centres unmarked) [Compound 8], for which, in experiment [1], the IC50 was > 75 µM and ~90 µM; the inhibition at 75 µM worked out at 69.9%. In addition, the “increase in thermal stability (melting temperature shift) of the LIN28 CSD” value in experiment [2] is “less than 0.5 °C”.

Consider `O=C(C1=C(O)C(=O)N(c2cccc(-c3ccccc3)c2)[C@@H]1c1ccc([N+](=O)[O-])cc1)c1ccccc1` [Compound 11R], for which the IC50 in experiment [1] was 24 µM. In experiment [2], the “increase in thermal stability (melting temperature shift) of the LIN28 CSD” value was roughly 1.9 °C.

As for `O=C(C1=C(O)C(=O)N(c2cccc(-c3ccccc3)c2)[C@H]1c1ccc([N+](=O)[O-])cc1)c1ccccc1` [Compound 11S], in experiment [1], the concentration for half-maximal inhibition (IC50) is 37 µM. Also, the “increase in thermal stability (melting temperature shift) of the LIN28 CSD” value in experiment [2] was roughly 1.9 °C.

Regarding `O=C(C1=C(O)C(=O)N(c2cccc(-c3ccccc3)c2)C1c1ccc([N+](=O)[O-])cc1)c1ccccc1` (centres unmarked) [Compound 11], in experiment [1], the IC50 was 27 µM and the inhibition at 75 µM was determined as 95%. For the same compound, the “inhibition of the LIN28B–let-7 interaction in EMSA (in words)” value against LIN28B–let-7 interaction is “concentration-dependent manner”. Also, the “direct binding to the LIN28 CSD in biolayer interferometry (in words)” value on LIN28A CSD is “concentration-dependent binding”. For the same compound, the “effect on biogenesis of mature let-7i and let-7d miRNAs (in words)” value in experiment [3] was “concentration-dependent manner”.

As for `O=C(C1=C(O)C(=O)N(c2ccc3c(c2)oc2ccccc23)C1c1ccc([N+](=O)[O-])cc1)c1ccco1` (centres unmarked) [Compound 49], the “inhibition of LIN28–let-7 complex formation in concentration-dependent EMSA (in words)” value in experiment [1] (dose–response EMSA) is given as “best inhibitory activities among the evaluated molecules”. For the same compound, in experiment [1], the inhibition at 75 µM worked out at 95%.
